Where two headings read alike, the source gives them in different places.
Tests used:
Cannabinoid CB1 Receptor = target: T1, Cannabinoid CB1 Receptor (Homo sapiens, UniProt P21554); experiment: Binding assay for CB1 agonists or inverse agonists (radioligand competition, membranes of transfected SK-N-MC cells); conditions: for inhibition at 0.2 µM: read-out: Cannabinoid CB1 Receptor Binding percent inhibition
T1 construct: expressed in transfected cells

Cannabinoid CB2 Receptor = target: T2, Cannabinoid CB2 Receptor (Homo sapiens, UniProt P34972); experiment: Binding assay for CB2 agonists or inverse agonists (radioligand competition, membranes of transfected SK-N-MC cells); conditions: for inhibition at 0.2 µM: read-out: Cannabinoid CB2 Receptor Binding percent inhibition
T2 construct: expressed in transfected cells
T2 sequence (P34972 whole entry): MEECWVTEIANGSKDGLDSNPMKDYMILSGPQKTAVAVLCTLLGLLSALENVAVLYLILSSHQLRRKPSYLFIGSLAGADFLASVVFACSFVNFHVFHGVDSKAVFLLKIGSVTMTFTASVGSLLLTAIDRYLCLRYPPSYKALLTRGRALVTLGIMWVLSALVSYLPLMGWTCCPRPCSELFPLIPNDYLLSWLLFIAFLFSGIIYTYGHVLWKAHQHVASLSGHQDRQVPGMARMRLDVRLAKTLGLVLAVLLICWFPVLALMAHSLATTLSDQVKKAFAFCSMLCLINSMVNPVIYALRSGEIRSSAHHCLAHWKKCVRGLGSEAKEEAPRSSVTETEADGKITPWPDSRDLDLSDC

[1] = test concentration of 0.2 μM, compounds without an IC50 binding value

T1 sequence (P21554 whole entry): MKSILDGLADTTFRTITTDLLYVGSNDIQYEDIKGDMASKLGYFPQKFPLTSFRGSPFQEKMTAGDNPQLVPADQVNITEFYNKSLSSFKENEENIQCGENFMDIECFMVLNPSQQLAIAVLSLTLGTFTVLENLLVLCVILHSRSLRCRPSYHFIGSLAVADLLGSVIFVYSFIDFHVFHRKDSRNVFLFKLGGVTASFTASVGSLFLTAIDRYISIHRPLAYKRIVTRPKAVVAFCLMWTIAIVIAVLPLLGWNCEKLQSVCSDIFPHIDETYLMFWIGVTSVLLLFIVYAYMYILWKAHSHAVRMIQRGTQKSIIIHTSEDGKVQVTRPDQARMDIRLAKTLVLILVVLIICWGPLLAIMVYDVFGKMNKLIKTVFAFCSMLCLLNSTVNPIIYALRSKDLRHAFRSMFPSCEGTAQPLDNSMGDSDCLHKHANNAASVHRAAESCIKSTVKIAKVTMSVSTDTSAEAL

C[C@H](NC(=O)c1nn(-c2ccc(Cl)cc2Cl)c2c1CN(C(=O)OC(C)(C)C)C/C2=C\c1ccc(F)cc1)C1CCCCC1 [Cpd 4, (7E)-3-[(1S)-1-cyclohexyl-ethylcarbamoyl]-1-(2,4-dichloro-phenyl)-7-(4-fluoro-benzylidene)-1,4,6,7-tetrahydro-pyrazolo[4,3-c]pyridine-5-carboxylic acid tert-butyl ester]
inhibition at 0.2 µM (Cannabinoid CB1 Receptor): 48%
inhibition at 0.2 µM (Cannabinoid CB2 Receptor): 9%

C[C@H](NC(=O)c1nn(-c2ccc(Cl)cc2Cl)c2c1CNC/C2=C\c1ccc(F)cc1)C1CCCCC1 [Cpd 5, (7E)-1-(2,4-dichloro-phenyl)-7-(4-fluoro-benzylidene)-4,5,6,7-tetrahydro-1H-pyrazolo[4,3-c]pyridine-3-carboxylic acid [(1S)-1-cyclohexyl-ethyl]-amide]
inhibition at 0.2 µM (Cannabinoid CB1 Receptor): 48%
inhibition at 0.2 µM (Cannabinoid CB2 Receptor): 8%

COc1ccc(/C=C2\CN(S(=O)(=O)N(C)C)Cc3c(C(=O)N[C@H](C)c4ccccc4)nn(-c4ccc(Cl)cc4Cl)c32)cc1 [Cpd 47]
IC50 (Cannabinoid CB1 Receptor): 2 nM
Cannabinoid CB2 Receptor Binding percent inhibition (Cannabinoid CB2 Receptor; [1]): 66%

COc1ccc(/C=C2\CN(CC(=O)O)Cc3c(C(=O)N[C@H](C)c4ccccc4)nn(-c4ccc(Cl)cc4Cl)c32)cc1 [Cpd 51, (7E)-[1-(2,4-dichloro-phenyl)-7-(4-methoxy-benzylidene)-3-[(1R)-1-phenyl-ethylcarbamoyl]-1,4,6,7-tetrahydro-pyrazolo[4,3-c]pyridin-5-yl]-acetic acid]
inhibition at 0.2 µM (Cannabinoid CB1 Receptor; [1]): 49%
inhibition at 0.2 µM (Cannabinoid CB2 Receptor; [1]): 19%

C[C@@H](NC(=O)c1nn(-c2ccc(Cl)cc2Cl)c2c1CN(CC(=O)O)C/C2=C\c1ccc(F)cc1)c1ccccc1 [Cpd 52, (7E)-[1-(2,4-dichloro-phenyl)-7-(4-fluoro-benzylidene)-3-[(1R)-1-phenyl-ethylcarbamoyl]-1,4,6,7-tetrahydro-pyrazolo[4,3-c]pyridin-5-yl]-acetic acid]
inhibition at 0.2 µM (Cannabinoid CB1 Receptor; [1]): 38%
inhibition at 0.2 µM (Cannabinoid CB2 Receptor; [1]): 7%

CC(NC(=O)c1nn(-c2ccc(Cl)cc2)c2c1CN(C(=O)OC(C)(C)C)C/C2=C\c1ccc(F)cc1)c1ccccn1 (stereo not shown) [Cpd 73, (7E)-1-(4-chloro-phenyl)-7-(4-fluoro-benzylidene)-3-(1-pyridin-2-yl-ethylcarbamoyl)-1,4,6,7-tetrahydro-pyrazolo[4,3-c]pyridine-5-carboxylic acid tert-butyl ester]
inhibition at 0.2 µM (Cannabinoid CB1 Receptor; [1]): 50%
inhibition at 0.2 µM (Cannabinoid CB2 Receptor; [1]): 6%

CC(C)(C)OC(=O)N1C/C(=C\c2ccc(F)cc2)c2c(c(C(=O)NN3CCCCC3)nn2-c2ccc(Cl)cc2)C1 [Cpd 74, (7E)-1-(4-chloro-phenyl)-7-(4-fluoro-benzylidene)-3-(piperidin-1-ylcarbamoyl)-1,4,6,7-tetrahydro-pyrazolo[4,3-c]pyridine-5-carboxylic acid tert-butyl ester]
inhibition at 0.2 µM (Cannabinoid CB1 Receptor; [1]): 39%
inhibition at 0.2 µM (Cannabinoid CB2 Receptor; [1]): 3%

CC(=O)N1C/C(=C\c2ccc(F)cc2)c2c(c(C(=O)NN3CCCCC3)nn2-c2ccc(Cl)cc2)C1 [Cpd 81, (7E)-5-acetyl-1-(4-chloro-phenyl)-7-(4-fluoro-benzylidene)-4,5,6,7-tetrahydro-1H-pyrazolo[4,3-c]pyridine-3-carboxylic acid piperidin-1-ylamide]
inhibition at 0.2 µM (Cannabinoid CB1 Receptor; [1]): 10%
inhibition at 0.2 µM (Cannabinoid CB2 Receptor; [1]): 22%

COC(=O)N1C/C(=C\c2ccc(F)cc2)c2c(c(C(=O)NN3CCCCC3)nn2-c2ccc(Cl)cc2)C1 [Cpd 82, (7E)-1-(4-chloro-phenyl)-7-(4-fluoro-benzylidene)-3-(piperidin-1-ylcarbamoyl)-1,4,6,7-tetrahydro-pyrazolo[4,3-c]pyridine-5-carboxylic acid methyl ester]
IC50 (Cannabinoid CB1 Receptor): 60 nM
Cannabinoid CB2 Receptor Binding percent inhibition (Cannabinoid CB2 Receptor; [1]): 32%

CCNC(=O)N1C/C(=C\c2ccc(F)cc2)c2c(c(C(=O)NN3CCCCC3)nn2-c2ccc(Cl)cc2)C1 [Cpd 83, (7E)-1-(4-chloro-phenyl)-7-(4-fluoro-benzylidene)-1,4,6,7-tetrahydro-pyrazolo[4,3-c]pyridine-3,5-dicarboxylic acid 5-ethylamide 3-piperidin-1-ylamide]
inhibition at 0.2 µM (Cannabinoid CB1 Receptor; [1]): 32%
inhibition at 0.2 µM (Cannabinoid CB2 Receptor; [1]): 19%

CC(C)(C)OC(=O)N1C/C(=C\c2ccc(F)cc2)c2c(c(C(=O)NN3CC4CCCC4C3)nn2-c2ccc(Cl)cc2)C1 (stereo not shown) [Cpd 84, (7E)-1-(4-chloro-phenyl)-7-(4-fluoro-benzylidene)-3-(hexahydro-cyclopenta[c]pyrrol-2-ylcarbamoyl)-1,4,6,7-tetrahydro-pyrazolo[4,3-c]pyridine-5-carboxylic acid tert-butyl ester]
inhibition at 0.2 µM (Cannabinoid CB1 Receptor; [1]): 30%
inhibition at 0.2 µM (Cannabinoid CB2 Receptor; [1]): 12%

O=C(NN1CC2CCCC2C1)c1nn(-c2ccc(Cl)cc2)c2c1CNC/C2=C\c1ccc(F)cc1 (stereo not shown) [Cpd 85, (7E)-1-(4-chloro-phenyl)-7-(4-fluoro-benzylidene)-4,5,6,7-tetrahydro-1H-pyrazolo[4,3-c]pyridine-3-carboxylic acid (hexahydro-cyclopenta[c]pyrrol-2-yl)-amide]
inhibition at 0.2 µM (Cannabinoid CB1 Receptor; [1]): 45%
inhibition at 0.2 µM (Cannabinoid CB2 Receptor; [1]): 11%

CC(=O)N1C/C(=C\c2ccc(F)cc2)c2c(c(C(=O)NN3CC4CCCC4C3)nn2-c2ccc(Cl)cc2)C1 (stereo not shown) [Cpd 86, (7E)-5-acetyl-1-(4-chloro-phenyl)-7-(4-fluoro-benzylidene)-4,5,6,7-tetrahydro-1H-pyrazolo[4,3-c]pyridine-3-carboxylic acid (hexahydro-cyclopenta[c]pyrrol-2-yl)-amide]
inhibition at 0.2 µM (Cannabinoid CB1 Receptor; [1]): 46%
inhibition at 0.2 µM (Cannabinoid CB2 Receptor; [1]): 24%

CC(C)(C)OC(=O)N1C/C(=C\c2ccc(F)cc2)c2c(c(C(=O)NN3CC4CCCC4C3)nn2-c2ccc(Cl)cc2Cl)C1 (stereo not shown) [Cpd 88, (7E)-1-(2,4-dichloro-phenyl)-7-(4-fluoro-benzylidene)-3-(hexahydro-cyclopenta[c]pyrrol-2-ylcarbamoyl)-1,4,6,7-tetrahydro-pyrazolo[4,3-c]pyridine-5-carboxylic acid tert-butyl ester]
inhibition at 0.2 µM (Cannabinoid CB1 Receptor; [1]): 53%
inhibition at 0.2 µM (Cannabinoid CB2 Receptor; [1]): 0%

COc1ccc(/C=C2\CN(C(=O)OC(C)(C)C)Cc3c(C(=O)NN4CC5CCCC5C4)nn(-c4ccc(Cl)cc4Cl)c32)cc1 (stereo not shown) [Cpd 94, (7E)-1-(2,4-dichloro-phenyl)-3-(hexahydro-cyclopenta[c]pyrrol-2-ylcarbamoyl)-7-(4-methoxy-benzylidene)-1,4,6,7-tetrahydro-pyrazolo[4,3-c]pyridine-5-carboxylic acid tert-butyl ester]
inhibition at 0.2 µM (Cannabinoid CB1 Receptor; [1]): 70%
inhibition at 0.2 µM (Cannabinoid CB2 Receptor; [1]): 38%

CCNC(=O)N1C/C(=C\c2ccc(OC)cc2)c2c(c(C(=O)NN3CC4CCCC4C3)nn2-c2ccc(Cl)cc2Cl)C1 (stereo not shown) [Cpd 101, (7E)-1-(2,4-dichloro-phenyl)-7-(4-methoxy-benzylidene)-1,4,6,7-tetrahydro-pyrazolo[4,3-c]pyridine-3,5-dicarboxylic acid 5-ethylamide 3-[(hexahydro-cyclopenta[c]pyrrol-2-yl)-amide]]
inhibition at 0.2 µM (Cannabinoid CB1 Receptor; [1]): 68%
inhibition at 0.2 µM (Cannabinoid CB2 Receptor; [1]): 15%

CCCCn1nc(C(=O)NN2CCCCC2)c2c1CCN(C(=O)OC)C2 [Cpd 102, 1-butyl-3-(piperidin-1-ylcarbamoyl)-1,4,6,7-tetrahydro-pyrazolo[4,3-c]pyridine-5-carboxylic acid methyl ester]
inhibition at 0.2 µM (Cannabinoid CB2 Receptor; [1]): 23%

CC12CCC(C1)C(C)(C)C2NC(=O)c1nn(Cc2ccccc2)c2c1CN(C(=O)OCc1ccccc1)CC2 (stereo not shown) [Cpd 108, 1-benzyl-3-(1,3,3-trimethyl-bicyclo[2.2.1]hept-2-ylcarbamoyl)-1,4,6,7-tetrahydro-pyrazolo[4,3-c]pyridine-5-carboxylic acid benzyl ester]
IC50 (Cannabinoid CB1 Receptor): 200 nM
IC50 (Cannabinoid CB2 Receptor): 2 nM

CCC(=O)N1CCc2c(c(C(=O)NC3C4(C)CCC(C4)C3(C)C)nn2Cc2ccccc2)C1 (stereo not shown) [Cpd 110, 1-benzyl-5-propionyl-4,5,6,7-tetrahydro-1H-pyrazolo[4,3-c]pyridine-3-carboxylic acid (1,3,3-trimethyl-bicyclo[2.2.1]hept-2-yl)-amide]
IC50 (Cannabinoid CB1 Receptor): 500 nM
IC50 (Cannabinoid CB2 Receptor): 20 nM

CC12CCC(C1)C(C)(C)C2NC(=O)c1nn(C2CCCCC2)c2c1CN(C(=O)OCc1ccccc1)CC2 (stereo not shown) [Cpd 121, 1-cyclohexyl-3-(1,3,3-trimethyl-bicyclo[2.2.1]hept-2-ylcarbamoyl)-1,4,6,7-tetrahydro-pyrazolo[4,3-c]pyridine-5-carboxylic acid benzyl ester]
IC50 (Cannabinoid CB1 Receptor): 1500 nM
IC50 (Cannabinoid CB2 Receptor): 90 nM

CCOC(=O)CN1CCc2c(c(C(=O)NC3C4(C)CCC(C4)C3(C)C)nn2C2CCCCC2)C1 (stereo not shown) [Cpd 126, [1-cyclohexyl-3-(1,3,3-trimethyl-bicyclo[2.2.1]hept-2-ylcarbamoyl)-1,4,6,7-tetrahydro-pyrazolo[4,3-c]pyridin-5-yl]-acetic acid ethyl ester]
IC50 (Cannabinoid CB1 Receptor; human CB1, SK-N-MC cell membranes, calculated by linear regression from percent inhibition at various concentrations, read-out: Cannabinoid CB1 Receptor Binding IC50): 1200 nM
inhibition at 0.2 µM (Cannabinoid CB2 Receptor; [1]): 49%

CC(C)(C)OC(=O)N1CCc2c(c(C(=O)NC3C4CC5CC(C4)CC3C5)nn2C2CCCCC2)C1 (stereo not shown) [Cpd 130, 3-(adamantan-2-ylcarbamoyl)-1-cyclohexyl-1,4,6,7-tetrahydro-pyrazolo[4,3-c]pyridine-5-carboxylic acid tert-butyl ester]
IC50 (Cannabinoid CB1 Receptor): 60 nM

CC(C)(C)OC(=O)N1C/C(=C\c2ccc(F)cc2)c2c(c(C(=O)N3CCCCC3)nn2-c2ccc(Cl)cc2Cl)C1 [Cpd 135, (7E)-1-(2,4-dichloro-phenyl)-7-(4-fluoro-benzylidene)-3-(piperidine-1-carbonyl)-1,4,6,7-tetrahydro-pyrazolo[4,3-c]pyridine-5-carboxylic acid tert-butyl ester]
inhibition at 0.2 µM (Cannabinoid CB1 Receptor; [1]): 40%
inhibition at 0.2 µM (Cannabinoid CB2 Receptor; [1]): 28%

CC(=O)N1C/C(=C\c2ccc(F)cc2)c2c(c(C(=O)N(C(C)=O)N3CC4CCCC4C3)nn2-c2ccc(Cl)cc2)C1 (stereo not shown) [Cpd 136, (7E)-5-acetyl-1-(4-chloro-phenyl)-7-(4-fluoro-benzylidene)-4,5,6,7-tetrahydro-1H-pyrazolo[4,3-c]pyridine-3-carboxylic acid acetyl-(hexahydro-cyclopenta[c]pyrrol-2-yl)-amide]
inhibition at 0.2 µM (Cannabinoid CB1 Receptor; [1]): 39%
inhibition at 0.2 µM (Cannabinoid CB2 Receptor; [1]): 22%

Reference: patent US20060089378A1 (priority 2004, published 2006)
